Measured values as given in patent publication US10704097B2, “Oxidative stress and cardiovascular disease events” (KATHOLIEKE UNIVERSITEIT LEUVEN, priority 2014, dated 2020).
Marks after values point to notes of the source that are not given here.

Legend:
[1] = system: DKO (LDL-R−/−×ob/ob) mice; details: mean ± SD
Method: Breeding and genotyping of LDL-receptor deficient, leptin-deficient ob/ob, and DKO (LDL-R^−/−×ob/ob) mice, on the C57BL/6J background, were performed as previously described (72, 73).
To convert from mg/dL to mM, we divided glucose by 18 (=molecular weight), triglycerides by 89 and total cholesterol by 39. […] To determine glucose tolerance, glucose was measured in samples obtained by tail bleeding before and 15, 30, 60, 120 and 240 minutes after intraperitoneal administration of glucose (20% glucose solution; 2 g/kg). Plasma adiponectin […] were measured with specific mouse ELISA (R&D Systems).

Cox1 = Cox1 gene expression in aorta of DKO mice (qPCR); details: 12 weeks treatment, relative RNA expression, mean ± SD
Method: (§1) Total RNA from monocytes, macrophages and vascular tissues was extracted with TRIzol reagent (Invitrogen) and purified on (mi)RNeasy Mini Kit columns (Qiagen). […] First-strand cDNA was generated from total RNA with the SuperScript VILO cDNA synthesis kit (Invitrogen). qPCR analysis was performed on a 7500 Fast Real-Time PCR system using Fast SYBRGreen master mix, according to the supplier protocols (Applied Biosystems). […] For each RNA and microRNA sample, the expression levels of the RNAs as described herein were compared and normalized to reference housekeeping RNAs or microRNAs. […] We compared them with non-treated DKO at 24 weeks. […] Food and water were available ad libitum. […] All mice were sacrificed by Nembutal overdose at the age of 24 weeks (72, 73).

Cox4i1 = Cox4i1 gene expression in aorta of DKO mice (qPCR); details: 12 weeks treatment, relative RNA expression, mean ± SD
Method: as §1

Tfam = Tfam gene expression in aorta of DKO mice (qPCR); details: 12 weeks treatment, relative RNA expression, mean ± SD
Method: as §1

[2] = DKO mice at 24 weeks, 12 weeks treatment in diet

Compound	AUC of IPGTT ([1]; DKO mice, 12 weeks treatment, intraperitoneal glucose tolerance test, glucose 2 g/kg)	Cox1 gene expression in aorta (Cox1)	Weight ([1]; DKO mice at 24 weeks, 12 weeks treatment in diet (fenofibrate 50, rosiglitazone 10 mg/kg/day))	Insulin ([1]; DKO mice at 24 weeks, 12 weeks treatment in diet, fasting plasma)	TG (triglyceride) [1, 2]	Total C (cholesterol) [1, 2]	Glucose ([1]; DKO mice at 24 weeks, 12 weeks treatment in diet, overnight fast)	ADN (adiponectin) ([1]; DKO mice at 24 weeks, 12 weeks treatment in diet, plasma)	HOMA-IR ([1]; DKO mice, 12 weeks treatment, fasting insulin × fasting glucose / 22.5)	Cox4i1 gene expression in aorta (Cox4i1)	Tfam gene expression in aorta (Tfam)
CC(C)OC(=O)C(C)(C)Oc1ccc(C(=O)c2ccc(Cl)cc2)cc1 [Fenofibrate]	75 ± 15 ×10^3										
CN(CCOc1ccc(CC2SC(=O)NC2=O)cc1)c1ccccn1 (centres unmarked) [Rosiglitazone, rosiglitazone]		1.16 ± 0.40***^/$/£££	55 ± 3.6*^/$ g	69 ± 42 ^ mU/L	192 ± 96 ^ mg/dl	700 ± 139*^/$$ mg/dl	88 ± 18*^/$/£ mg/dl	16 ± 2.3***^/£££ μg/ml	16 ± 11 ^	2.20 ± 0.64***^/$$/££	1.57 ± 0.50***^/$/££
